The results in this text go back to patent publication US12410160B2 (Gilead Sciences, Inc., priority 2021, dated 2025).

Where two headings read alike, the source gives them in different places. Bounds are passed on as bounds.

Data set [1] can be described thus: pKa analysis by capillary electrophoresis (pKa PRO Analyzer, co-solvent method). It is filed as physicochemical. As to conditions: co-solvent method (60% to 30% methanol buffers); for pKa: methanol/aqueous co-solvent buffers; for 1st pKa: pH range 1.7-11.2. On the procedure: The 10 mM DMSO stock solutions of test articles (TAs) were diluted 100-fold with either 2 mM HCl or 2 mM NaOH and methanol. The final concentration of methanol was 60%, TA concentration was 100 μM, and DMSO concentration was 1%. The TAs were transferred into 24 consecutive wells of a 96-well plate for analysis using the co-solvent method. […] All data was obtained using a pKa. PRO Analyzer (AATI, Ankey, IA) by performing four consecutive CE runs from 60% to 30% co-solvent buffers. Norfloxacin was used as a daily performance-indicating standard. The pKa values were predicted by using pKa. Estimator® software (AATI, Ankey, IA) by relating molecular weight of the TA to its mobility.

The target in a further data set is human KHK-C (Homo sapiens (Human), UniProt P50053). The data set can be described thus: KHK Biochemical Assay (IC50), ADP-Glo, KHK-C. As to conditions: average of at least two separate assays. A digest of the protocol:
(§1)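 Luminescent ADP-Glo read-out of ADP made by His-tagged KHK (BL21 (DE3) expression, Ni-NTA). Enzyme and compound sat together 30 min before ATP/fructose addition, then reacted 4 h at RT in Hepes pH 7.4 buffer with KCl, MgCl2, Triton-X. Quench 1 h, detection 1 h.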

A further data set addresses human KHK-A (Homo sapiens (Human), UniProt P50053). Briefly: KHK Biochemical Assay (IC50), ADP-Glo, KHK-A. The note with it: average of at least two separate assays. An outline of the steps:
as §1
(ADP-Glo first removes unused ATP, then detects ADP through luciferase.)

A further data set has as its system HepG2 cells. Briefly: F1P Cell-Based Assay (EC50), 13C6-fructose-1-phosphate in HepG2 cells (cell culture medium or 50% human plasma).
Another data set concerns the target human OATP1B1 (Homo sapiens (Human), UniProt Q9Y6L6). The data set can be described thus: In Vitro Inhibition Assessment with Human OATP1B1 Transporter. The note with it: HEK293-OATP1B1 cells, probe substrate pravastatin. It is filed as in vitro ADME. A digest of the protocol:
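HEK293-OATP1B1 and mock cells were preincubated 15 min with compound in HBSS. They were then coincubated 5 min with compound plus pravastatin (0.4% DMSO final), and intracellular substrate was quantified by LC-MS/MS. Mock-corrected uptake relative to solvent gave percentage activity, from which IC50 was fitted.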

The target of data set [2] is KHK-C expressed in NRK-52E cells (Homo sapiens (Human), UniProt P50053). Briefly: KHK-C Cell-based Assay (EC50), NRK CTG, fructose-mediated ATP-depletion.
KHK-C expressed in NRK-52E cells, sequence (P50053 whole entry): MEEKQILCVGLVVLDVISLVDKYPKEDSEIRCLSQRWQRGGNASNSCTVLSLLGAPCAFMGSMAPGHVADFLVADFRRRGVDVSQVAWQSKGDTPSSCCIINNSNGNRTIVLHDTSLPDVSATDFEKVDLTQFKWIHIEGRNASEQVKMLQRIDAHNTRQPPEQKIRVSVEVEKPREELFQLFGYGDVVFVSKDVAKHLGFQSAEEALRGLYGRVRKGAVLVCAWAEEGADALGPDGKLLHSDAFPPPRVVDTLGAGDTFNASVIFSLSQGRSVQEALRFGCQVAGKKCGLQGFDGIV
Setting [3] is: pH range 1.7-11.2, read-out: 1st pKa.
The mark [4] stands for this setting: Homo sapiens, HepG2, HepG2 cells, 50% human plasma, read-out: F1P 50% HP EC50.
The mark [5] stands for this setting: Homo sapiens, HepG2, read-out: F1P 10% FBS EC50, HepG2 cells, cell culture medium (10% FBS).
The mark [6] stands for this setting: pH range 1.7-11.2, read-out: 2nd pKa.

human KHK-A, sequence (P50053 other isoform, or with tags, fused parts or gaps): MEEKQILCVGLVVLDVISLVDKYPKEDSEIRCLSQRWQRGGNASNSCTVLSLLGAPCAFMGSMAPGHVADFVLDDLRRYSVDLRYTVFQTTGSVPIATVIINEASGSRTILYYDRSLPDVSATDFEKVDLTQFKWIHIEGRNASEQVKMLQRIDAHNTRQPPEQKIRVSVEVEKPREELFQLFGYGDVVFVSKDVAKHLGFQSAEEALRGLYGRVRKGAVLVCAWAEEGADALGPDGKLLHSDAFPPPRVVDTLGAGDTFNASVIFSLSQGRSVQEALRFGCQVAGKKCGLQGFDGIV
human OATP1B1, sequence (Q9Y6L6 whole entry): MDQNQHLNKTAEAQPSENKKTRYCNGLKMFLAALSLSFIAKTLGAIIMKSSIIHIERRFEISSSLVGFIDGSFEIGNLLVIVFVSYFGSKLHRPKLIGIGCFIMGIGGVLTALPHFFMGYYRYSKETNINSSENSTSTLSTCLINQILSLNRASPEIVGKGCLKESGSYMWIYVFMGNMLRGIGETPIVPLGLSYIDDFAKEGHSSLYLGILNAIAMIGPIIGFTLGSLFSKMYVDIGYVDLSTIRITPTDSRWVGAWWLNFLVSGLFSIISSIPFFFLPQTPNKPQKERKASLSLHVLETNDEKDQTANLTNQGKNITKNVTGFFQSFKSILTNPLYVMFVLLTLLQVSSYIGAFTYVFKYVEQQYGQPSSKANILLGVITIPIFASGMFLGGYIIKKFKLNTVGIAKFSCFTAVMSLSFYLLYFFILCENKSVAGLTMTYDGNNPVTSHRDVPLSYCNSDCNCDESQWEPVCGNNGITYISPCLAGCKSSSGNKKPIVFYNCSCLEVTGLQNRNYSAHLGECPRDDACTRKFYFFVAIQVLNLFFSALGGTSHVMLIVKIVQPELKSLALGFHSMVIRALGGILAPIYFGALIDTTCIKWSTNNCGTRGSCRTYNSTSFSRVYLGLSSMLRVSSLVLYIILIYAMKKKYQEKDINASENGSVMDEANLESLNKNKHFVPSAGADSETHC
human KHK-C, sequence (P50053 whole entry): as the sequence (P50053 whole entry) above

In general, pKa refers to the pH at which an ionisable group is half protonated. By IC50 is commonly meant the concentration needed to halve the response being measured. A lower IC50 goes with greater potency in that assay. Regarding `C[C@H]1CCN1c1nc2c(c(-c3ccc(C(N)=O)c(F)c3)n1)CCC2` [Example 305, (S)-2-fluoro-4-(2-(2-methylazetidin-1-yl)-6,7-dihydro-5H-cyclopenta[d]pyrimidin-4-yl)benzamide], the pKa in data set [1] (setting [3]) turned out to be 4.15. The IC50 on human KHK-C (ADP-Glo) stood at 38.9 nM; against human KHK-A (ADP-Glo), 61.3 nM.

For orientation: EC50 means the concentration that produces a half-maximal response. On to `C[C@H]1[C@H](O)CN1c1nc(-c2ccc3c(c2)CC[C@@]32COC(=O)N2)c2c(n1)C(F)(F)CC2` (single isomer, unassigned) [Example 476], for which the values for the IC50 on human KHK-C, on human KHK-A and against human OATP1B1 were 0.2 nM, 10.9 nM and 5980 nM, respectively. Further, the EC50 stood at 37.5 nM with HepG2 cells (setting [4]), 23.5 nM with HepG2 cells (setting [5]) and 9.5 nM in data set [2].

As to `C[C@H]1CCN1c1nc2c(c(-c3ccccn3)n1)CCC2` [Example 21, (S)-2-(2-methylazetidin-1-yl)-4-(pyridin-2-yl)-6,7-dihydro-5H-cyclopenta[d]pyrimidine], the pKa in data set [1] (setting [3]) was determined as 1.73; in data set [1] (setting [6]) it was 4.48. Moreover, the IC50 on human KHK-C (ADP-Glo) worked out at 292 nM; at human KHK-A (ADP-Glo) it was 367 nM.

As to `C[C@H]1[C@H](O)CN1c1nc(-c2cc(F)c3c(c2)OCCNC3=O)c2c(n1)C(F)(F)CC2` [Example 746, 8-[7,7-difluoro-2-[(2S,3R)-3-hydroxy-2-methyl-azetidin-1-yl]-5,6-dihydrocyclopenta[d]pyrimidin-4-yl]-6-fluoro-3,4-dihydro-2H-1,4-benzoxazepin-5-one], the IC50 on human KHK-C was determined as 7.4 nM; at human KHK-A, 46.7 nM; at human OATP1B1 it was 1070 nM. Also, the values for the EC50 (in the data set on HepG2 cells (setting [4]); in the data set with HepG2 cells (setting [5]); in data set [2]) were 76.8 nM, 49.2 nM and 108 nM, respectively.

With `C[C@H]1CCN1c1nc2c(c(-c3cccnc3)n1)CCC2` [Example 15, (S)-2-(2-methylazetidin-1-yl)-4-(pyridin-3-yl)-6,7-dihydro-5H-cyclopenta[d]pyrimidine], the pKa in data set [1] (setting [3]) is 3.57; in data set [1] (setting [6]) it was 5.44. For the same molecule, the IC50 on human KHK-C (ADP-Glo) stood at 165 nM; on human KHK-A (ADP-Glo) it was 148 nM.

Turning to `C[C@H]1[C@H](O)CN1c1nc(-c2cccc(CNS(C)(=O)=O)c2)c2c(n1)C(F)(F)CC2` [Example 324, N-(3-(7,7-difluoro-2-((2S,3R)-3-hydroxy-2-methylazetidin-1-yl)-6,7-dihydro-5H-cyclopenta[d]pyrimidin-4-yl)benzyl)methanesulfonamide], the results for the IC50 against human KHK-C (ADP-Glo), on human KHK-A (ADP-Glo) and on human OATP1B1 were 8.3 nM, 6.6 nM and 5800 nM, respectively. The EC50 in the data set with HepG2 cells (setting [4]) came out at 59.9 nM; in the data set with HepG2 cells (setting [5]), 19 nM; in data set [2], 72.3 nM.

`C[C@H]1CCN1c1nc2c(c(-c3ccn(C)n3)n1)CCC2` [Example 17, (S)-4-(1-methyl-1H-pyrazol-3-yl)-2-(2-methylazetidin-1-yl)-6,7-dihydro-5H-cyclopenta[d]pyrimidine]: in data set [1] (setting [3]), the pKa was 4.69. Moreover, the IC50 against human KHK-C (ADP-Glo) came to 193 nM; against human KHK-A (ADP-Glo), 252 nM.

With `C[C@H]1[C@H](O)CN1c1nc2c(c(-c3ccc(C(N)=O)cc3)n1)CCC2` [Example 197, 4-[2-[(2S,3R)-3-hydroxy-2-methyl-azetidin-1-yl]-6,7-dihydro-5H-cyclopenta[d]pyrimidin-4-yl]benzamide], the values for the IC50 against human KHK-C (ADP-Glo), on human KHK-A (ADP-Glo) and against human OATP1B1 were 51.6 nM, 65.5 nM and 5920 nM, respectively. Also, the EC50 in the data set with HepG2 cells (setting [4]) was found to be 191 nM; with HepG2 cells (setting [5]), 120 nM; in data set [2], 379 nM.

As to `C[C@H]1CCN1c1nc2c(c(-c3cccc([C@H]4C[C@@H]4C(=O)O)c3)n1)CCC2` (single isomer, unassigned) [Example 89], the IC50 stood at 3.3 nM on human KHK-C (ADP-Glo), 6 nM on human KHK-A (ADP-Glo) and 160 nM against human OATP1B1. The EC50 with HepG2 cells (setting [4]) came to 311 nM; with HepG2 cells (setting [5]), 35.7 nM; in data set [2], 37 nM.

Take `C[C@H]1CCN1c1nc2c(c(-c3ccnn3C)n1)CCC2` [Example 20, (S)-4-(1-methyl-1H-pyrazol-5-yl)-2-(2-methylazetidin-1-yl)-6,7-dihydro-5H-cyclopenta[d]pyrimidine]: the pKa in data set [1] (setting [3]) came out at 4. Also, the IC50 at human KHK-C (ADP-Glo) came out at 156 nM; at human KHK-A (ADP-Glo) it was 146 nM.

On to `C[C@H]1[C@H](O)CN1c1nc(-c2ccc3c(c2)OC[C@@]32COCC(=O)N2)c2c(n1)C(F)(F)CC2` (single isomer, unassigned) [Example 499], for which the IC50 against human KHK-C stood at 0.2 nM; against human KHK-A, 2.4 nM; at human OATP1B1, 24300 nM. Further, the EC50 worked out at 6.4 nM in the data set with HepG2 cells (HepG2 cells, 50% human plasma, read-out: F1P 50% HP EC50); 3 nM with HepG2 cells (read-out: F1P 10% FBS EC50, HepG2 cells, cell culture medium (10% FBS)); 1.6 nM in data set [2] (read-out: NRK CTG EC50, NRK-52E cells, Cell-Titer Glo, 25 mM fructose).

Take `C[C@H]1CCN1c1nc2c(c(-c3cn[nH]c3)n1)CCC2` [Example 19, (S)-2-(2-methylazetidin-1-yl)-4-(1H-pyrazol-4-yl)-6,7-dihydro-5H-cyclopenta[d]pyrimidine]: the pKa in data set [1] (setting [3]) was 4.88. In addition, the figures for the IC50 against human KHK-C (ADP-Glo) and against human KHK-A (ADP-Glo) were 33.2 nM and 38.6 nM, respectively.

In the case of `C[C@H]1[C@H](O)CN1c1nc(-c2ccc(C(N)=O)cc2)c2c(n1)C(F)(F)CC2` [Example 129, 4-(7,7-difluoro-2-((2S,3R)-3-hydroxy-2-methylazetidin-1-yl)-6,7-dihydro-5H-cyclopenta[d]pyrimidin-4-yl)benzamide], the IC50 worked out at 6.4 nM at human KHK-C (ADP-Glo), 14 nM on human KHK-A (ADP-Glo) and 13200 nM at human OATP1B1. Besides, the EC50 with HepG2 cells (setting [4]) was 36.7 nM; in the data set with HepG2 cells (setting [5]) it was 18.8 nM; in data set [2] it was 80.8 nM.

As to `C[C@H]1[C@H](F)CN1c1nc(-c2ccc(C3(N)CS(=N)(=O)C3)cc2)c2c(n1)C(F)(F)CC2` (stereo partly drawn) [Example 796], the “1st pKa” value in data set [1] is 4.8. The midpoint of inhibition against human KHK-C (ADP-Glo), the IC50, lay at 1.8 nM.

`C[C@H]1[C@H](O)CN1c1nc(-c2ccc3c(c2)O[C@H](CO)CNC3=O)c2c(n1)C(F)(F)CC2` [Example 705, (S)-8-(7,7-difluoro-2-((2S,3R)-3-hydroxy-2-methylazetidin-1-yl)-6,7-dihydro-5H-cyclopenta[d]pyrimidin-4-yl)-2-(hydroxymethyl)-3,4-dihydrobenzo[f][1,4]oxazepin-5(2H)-one]: the values for the IC50 at human KHK-C and against human OATP1B1 were 3.2 nM and 8910 nM, respectively. Besides, the values for the EC50 (with HepG2 cells (setting [4]); in the data set with HepG2 cells (setting [5]); in data set [2]) were 55.2 nM, 52.4 nM and 630 nM, respectively.

Turning to `C[C@H]1[C@H](O)CN1c1nc(-c2ccc3c(=O)[nH]ccc3c2)c2c(n1)C(F)(F)CC2` [Example 318, 6-(7,7-difluoro-2-((2S,3R)-3-hydroxy-2-methylazetidin-1-yl)-6,7-dihydro-5H-cyclopenta[d]pyrimidin-4-yl)isoquinolin-1(2H)-one], the IC50 against human KHK-C (ADP-Glo) turned out to be 1.6 nM; against human KHK-A (ADP-Glo) it was 6 nM; against human OATP1B1, 350 nM. The 50% effective concentration (EC50) in the data set on HepG2 cells (setting [4]) was 16.1 nM; in the data set with HepG2 cells (setting [5]) it was 9.3 nM; in data set [2] it was 9.1 nM.

Take `C[C@H]1[C@H](O)CN1c1nc(-c2ccc3c(c2)OC[C@@]32COC(=O)N2)c2c(n1)C(F)(F)CC2` (single isomer, unassigned) [Example 483]: the IC50 stood at 0.2 nM against human KHK-C, 4.6 nM against human KHK-A and 17400 nM on human OATP1B1. The EC50 in the data set with HepG2 cells (setting [4]) amounted to 18.4 nM; in the data set with HepG2 cells (setting [5]) it was 5.3 nM; in data set [2], 5.4 nM.

In the case of `C[C@H]1CCN1c1nc2c(c(-c3cc4cc[nH]c(=O)c4s3)n1)CCC2` [Example 392, 2-[2-[(2S)-2-methylazetidin-1-yl]-6,7-dihydro-5H-cyclopenta[d]pyrimidin-4-yl]-6H-thieno[2,3-c]pyridin-7-one], the values for the IC50 at human KHK-C (ADP-Glo) and on human OATP1B1 were 1.5 nM and 100 nM, respectively. Besides, the EC50 stood at 85.1 nM in the data set with HepG2 cells (setting [4]), 10.9 nM in the data set with HepG2 cells (setting [5]) and 3 nM in data set [2].

Regarding `C[C@H]1[C@H](O)CN1c1nc(-c2cccc(S(C)(=N)=O)c2)c2c(n1)C(F)(F)CC2` (stereo partly drawn) [Example 464], the IC50 on human KHK-C was 15.7 nM; on human OATP1B1, above 40000 nM. Also, the EC50 turned out to be 55.1 nM in the data set on HepG2 cells (setting [4]), 45.8 nM with HepG2 cells (setting [5]) and 55 nM in data set [2].

Regarding `C[C@H]1[C@H](O)CN1c1nc(-c2ccc([C@@]3(N)CCS(=O)(=O)C3)cc2)c2c(n1)C(F)(F)CC2` (single isomer, unassigned) [Example 794], in data set [1], the “1st pKa” value was found to be 4.9. This molecule displayed an IC50 against human KHK-C (ADP-Glo) of 4.4 nM.
